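Growth conditions: 96-well plates. Treatment: test compound, 48 hours, 5 concentrations. Analysis: linear interpolation between bracketing concentrations; unreached endpoints set to highest concentration. GI50 = concentration required for 50% inhibition of growth. TGI: total growth inhibition.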
Assays:
Assay in all cases: inhibition of tumour cell growth, NCI panel, 48 h
[1] = tested on: T-47D breast
[2] = tested on: NCI-H522 lung
[3] = tested on: RXF 393 renal
[4] = tested on: TK-10 renal
[5] = tested on: U251 CNS
[6] = tested on: SF-539 CNS
[7] = tested on: IGROV1 ovarian
[8] = tested on: KM12 colon
[9] = tested on: OVCAR-3 ovarian
[10] = tested on: BT-549 breast

SMILES	GI50 [1] [µM]	TGI [1] [µM]	GI50 [2] [µM]	TGI [2] [µM]	GI50 [3] [µM]	TGI [3] [µM]	GI50 [4] [µM]	TGI [4] [µM]	GI50 [5] [µM]	TGI [5] [µM]	GI50 [6] [µM]	TGI [6] [µM]	GI50 [7] [µM]	TGI [7] [µM]	GI50 [8] [µM]	TGI [8] [µM]	GI50 [9] [µM]	TGI [9] [µM]	GI50 [10] [µM]	TGI [10] [µM]
O=S(=O)(Nc1cc(Sc2cccc3cccnc23)c(O)c2ccccc12)c1ccccc1	1.56	4.79	2.12	8.17	2.4	12.3	5.08	18.3	0.78	24.2	0.957	5.13	1.01	6	2.03	16.5	0.817	3.9	2.9	16
CC/C=C\C[C@H]1C/C=C2/C(=O)C=C[C@@H]2C/C=C\CCCC(=O)O1	1.21	9.33	0.57	2.45	1.57	3.1	1.8	5.03	0.779	2.49	0.855	2.67	1.69	4.28	0.94	4.44	0.734	3.9	0.674	3.22
C[C@H](O)C(=O)N1CCC(CCn2c(Sc3cc4c(cc3Br)OCO4)nc3c(N)ncnc32)CC1	2.15	> 100	0.791	> 52.2	2.57	> 31.6	1.3	> 100	2.14	> 100	1.73	> 100	1.32	> 100	0.424	9.86	3.28	> 100	1.93	> 100
CN(C)CCN1C(=O)c2ccc3c4c(ccc(c24)C1=O)C(=O)N(CCN=C=S)C3=O	0.0299	0.165	0.0311	0.145	0.0416	0.177	0.0218	0.109	0.0347	0.153	0.0482	0.212	0.051	0.236	0.0415	0.173	0.0267	0.0897	0.129	0.297
Cc1ccc2[nH]c(O)c(N=Nc3ccc(S(N)(=O)=O)cc3)c2c1	15.3	> 25	8.94	> 25	5.27	17.5	10.1	> 25	12.8	> 25	8.73	> 25	> 16.1	> 25	4.17	> 25	6.73	> 18.4	9.88	> 18.4
Nc1nc(F)nc2c1ncn2C1OC(CO)C(O)C1O (stereo not given)	> 56	> 100	18.4	> 100	97.6	> 100		> 100	70.7	> 100		> 100	74.1	> 100		> 100		> 100		> 100
CCOc1cc(C(C)(C)C)ccc1C1=N[C@@](C)(c2ccc(Cl)cc2)[C@@](C)(c2ccc(Cl)cc2)N1C(=O)N1CCN(CCCS(C)(=O)=O)CC1	9.21	61.4	7.11	39.2	3.39	14.4	10.3	46.9	12.2	45.9	5.12	16.9	1.4	10.9	11.4	28	11.5	25.7	2.76	15.1
